# Key:
# Format in all cases: in vivo
# Details in all cases: evaluated after 13 days
# [1] = system: Echinochloa crus-galli (ECHCG); experiment: Post-emergence herbicidal activity, Echinochloa crus-galli; design: key: 5=total damage to plant; 0=no damage to plant
# Procedure, shortened: (§1)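 Scores (0 no damage to 5 total damage) read 13 d after spraying. Plants sprayed post-emergence 8 d after sowing; spray solution acetone/water 50:50 with 0.5% Tween 20. Growth at 24/16 °C day/night, 14 h light, 65% RH, twice-daily watering.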
# [2] = system: Echinochloa crus-galli (ECHCG); experiment: Pre-emergence herbicidal activity, Echinochloa crus-galli; design: key: 5=total damage to plant; 0=no damage to plant
# Procedure, shortened: (§2)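 Pots of seeds were sprayed one day after sowing (pre-emergence) with compound in acetone/water (50:50) plus 0.5% Tween 20, then grown in a glasshouse at 24/16 °C day/night, 14 h light, 65% humidity. Damage scored 0–5 (5 = total damage) after 13 days.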
# [3] = system: Setaria faberi (SETFA); experiment: Post-emergence herbicidal activity, Setaria faberi; design: key: 5=total damage to plant; 0=no damage to plant
# Procedure, shortened: as §1
# [4] = system: Avena fatua (AVEFA); experiment: Pre-emergence herbicidal activity, Avena fatua; design: key: 5=total damage to plant; 0=no damage to plant
# Procedure, shortened: as §2
# [5] = system: Triticum aestivium (TRZAW); experiment: Post-emergence herbicidal activity, Triticum aestivium; design: key: 5=total damage to plant; 0=no damage to plant
# Procedure, shortened: as §1
# [6] = system: Avena fatua (AVEFA); experiment: Post-emergence herbicidal activity, Avena fatua
# Procedure, shortened: as §1
# [7] = system: Alopecurus myosuroides (ALOMY); experiment: Pre-emergence herbicidal activity, Alopecurus myosuroides; design: key: 5=total damage to plant; 0=no damage to plant
# Procedure, shortened: as §2
# [8] = system: Setaria faberi (SETFA); experiment: Pre-emergence herbicidal activity, Setaria faberi; design: key: 5=total damage to plant; 0=no damage to plant
# Procedure, shortened: as §2
# [9] = system: Alopecurus myosuroides (ALOMY); experiment: Post-emergence herbicidal activity, Alopecurus myosuroides; design: key: 5=total damage to plant; 0=no damage to plant
# Procedure, shortened: as §1
# [10] = system: Lolium perenne (LOLPE); experiment: Post-emergence herbicidal activity, Lolium perenne
# Procedure, shortened: as §1
# [11] = system: Lolium perenne (LOLPE); experiment: Pre-emergence herbicidal activity, Lolium perenne; design: key: 5=total damage to plant; 0=no damage to plant
# Procedure, shortened: as §2
# [12] = system: Triticum aestivium (TRZAW); experiment: Pre-emergence herbicidal activity, Triticum aestivium; design: key: 5=total damage to plant; 0=no damage to plant
# Procedure, shortened: as §2
SMILES,Control of ECHCG after post-emergence application (score 0-5) ([1]; 1000 g/ha),Control of ECHCG after pre-emergence application (score 0-5) ([2]; 1000 g/ha),Control of SETFA after post-emergence application (score 0-5) ([3]; 1000 g/ha),Control of AVEFA after pre-emergence application (score 0-5) ([4]; 1000 g/ha),Control of TRAZW after post-emergence application (score 0-5) ([5]; 1000 g/ha),Control of AVEFA after post-emergence application (score 0-5) ([6]; 1000 g/ha),Control of ALOMY after pre-emergence application (score 0-5) ([7]; 1000 g/ha),Control of SETFA after pre-emergence application (score 0-5) ([8]; 1000 g/ha),Control of ALOMY after post-emergence application (score 0-5) ([9]; 1000 g/ha),Control of LOLPE after post-emergence application (score 0-5) ([10]; 1000 g/ha),Control of LOLPE after pre-emergence application (score 0-5) ([11]; 1000 g/ha),Control of TRAZW after pre-emergence application (score 0-5) ([12]; 1000 g/ha),other results
O=C(Nc1ccc(-c2cncc(F)c2)nc1C(F)(F)F)OCCC(F)(F)F [Compound B96],–,–,–,–,–,–,–,–,–,–,–,–,Control of ECHCG after post-emergence application (score 0-5) ([1]; 250 g/ha): 5; Control of ECHCG after pre-emergence application (score 0-5) ([2]; 250 g/ha): 4; Control of SETFA after post-emergence application (score 0-5) ([3]; 250 g/ha): 5; Control of AVEFA after pre-emergence application (score 0-5) ([4]; 250 g/ha): 1; Control of TRAZW after post-emergence application (score 0-5) ([5]; 250 g/ha): 0; Control of AVEFA after post-emergence application (score 0-5) ([6]; 250 g/ha): 3; Control of ALOMY after pre-emergence application (score 0-5) ([7]; 250 g/ha): 0; Control of SETFA after pre-emergence application (score 0-5) ([8]; 250 g/ha): 5; Control of ALOMY after post-emergence application (score 0-5) ([9]; 250 g/ha): 0; Control of LOLPE after post-emergence application (score 0-5) ([10]; 250 g/ha): 2; Control of LOLPE after pre-emergence application (score 0-5) ([11]; 250 g/ha): 1; Control of TRAZW after pre-emergence application (score 0-5) ([12]; 250 g/ha): 0
Cc1cc(CNC(=O)Nc2ccc(-c3cncc(F)c3)nc2C(F)(F)F)c(C(F)(F)F)o1 [Compound B79],1,2,2,0,0,2,0,1,0,1,1,0,–
CC(C)(C)OC(=O)N(CC1CC1)c1ccc(-c2cncc(F)c2)nc1C(F)(F)F [Compound B10],4,3,5,2,1,3,1,5,1,3,1,0,–
CN(C(=O)OC(C)(C)C)c1ccc(-c2cncc(C#N)c2)nc1C(F)(F)F [Compound B4],4,1,5,0,2,2,0,4,1,1,0,1,–
O=C(Nc1ccccc1)Nc1ccc(-c2cncc(F)c2)nc1C(F)(F)F [Compound B71],3,1,3,0,1,2,0,1,0,2,0,0,–
CC(C)CNC(=O)Nc1ccc(-c2cncc(F)c2)nc1C(F)(F)F [Compound B90],–,–,–,–,–,–,–,–,–,–,–,–,Control of ECHCG after post-emergence application (score 0-5) ([1]; 250 g/ha): 4; Control of ECHCG after pre-emergence application (score 0-5) ([2]; 250 g/ha): 4; Control of SETFA after post-emergence application (score 0-5) ([3]; 250 g/ha): 5; Control of AVEFA after pre-emergence application (score 0-5) ([4]; 250 g/ha): 1; Control of TRAZW after post-emergence application (score 0-5) ([5]; 250 g/ha): 0; Control of AVEFA after post-emergence application (score 0-5) ([6]; 250 g/ha): 3; Control of ALOMY after pre-emergence application (score 0-5) ([7]; 250 g/ha): 0; Control of SETFA after pre-emergence application (score 0-5) ([8]; 250 g/ha): 5; Control of ALOMY after post-emergence application (score 0-5) ([9]; 250 g/ha): 0; Control of LOLPE after post-emergence application (score 0-5) ([10]; 250 g/ha): 2; Control of LOLPE after pre-emergence application (score 0-5) ([11]; 250 g/ha): 1; Control of TRAZW after pre-emergence application (score 0-5) ([12]; 250 g/ha): 0
CC(C)OC(=O)Nc1ccc(-c2cncc(F)c2)nc1C#N [Compound B115],5,4,5,2,1,4,0,5,1,3,0,0,–
COc1nc(-c2cncc(F)c2)ccc1NC(=O)OC(C)(C)C [Compound B78],2,2,5,0,0,2,0,4,0,1,1,0,–
COC(=O)CN(C(=O)OC(C)(C)C)c1ccc(-c2cncc(F)c2)nc1C(F)(F)F [Compound B11],2,0,3,0,0,1,0,1,0,1,0,0,–
